Test results published in paper PMC9154803, “Synthesis, X-ray diffraction analysis, quantum chemical studies and α-amylase inhibition of probenecid derived S-alkylphthalimide-oxadiazole-benzenesulfonamide hybrids” (Journal of Enzyme Inhibition and Medicinal Chemistry, 2022).
≈ marks a conversion by molar mass, not a printed value.

Target: T1, α-amylase
T1 construct: gene AMY2
Experiment: DNS starch hydrolysis assay, absorbance at […] nm
Type: biochemical

In the case of CCCN(CCC)S(=O)(=O)c1ccc(-c2nnc(SCCCN3C(=O)c4ccccc4C3=O)o2)cc1 [compound 1, 4–(5-(3–(1,3-Dioxoisoindolin-2-yl)propylthio)-1,3,4-oxadiazol-2-yl)-N,N-dipropylbenzenesulfonamide], the “IC50 value” is reported as 92.23 ± 0.23 µg/mL (≈ 174 µM).

For CCCN(CCC)S(=O)(=O)c1ccc(-c2nnc(SCCCCN3C(=O)c4ccccc4C3=O)o2)cc1 [compound 2, 4–(5-(4–(1,3-Dioxoisoindolin-2-yl)butylthio)-1,3,4-oxadiazol-2-yl)-N,N-dipropylbenzenesulfonamide], the “IC50 value” was 76.92 ± 0.19 µg/mL (≈ 142 µM).
